Reference: US20040132970A1, “Dermaseptin-derived peptides and their use in delivery systems” (priority 2002, published 2004)
“Also recorded” adds a separate entry of the source. Ends that are not written are not given here.

How the values were obtained:
HeLa cells [1] = test: Penetration of Lissamine Rhodamine-labeled synthetic peptides into intact cultured cells, fluorescence microscopy; assay type: cell-based; conditions: for co-penetration of free fluorophore LR into intact HeLa cells: mixture of unlabeled S413 and free LR, versus LR alone; for cell penetration and intracellular localization in intact HeLa cells (FIG. 1): 37° C., 5 μM; for cell penetration and intracellular localization in intact HeLa cells (FIG. 1) / cell penetration and nuclear accumulation in intact HeLa cells (FIG. 3): 30 minutes; for cell penetration and nuclear accumulation in intact HeLa cells (FIG. 3): 10 μM Rev at 37° C., 2 μM of RR-S413
Experimental: HeLa cells (3×10^4 per well) were cultured on eight-well Lab-Teck cover slips (Nunc Inc.) or on 10-mm cover slips to sub confluent density. Following the removal of the culture medium, the cells were washed three times with PBS and then exposed to different concentrations of the Lissamine Rhodamine-labeled peptides at 37° C. or at 4° C. At the end of the incubation period the cells were washed three times in PBS and fixed in 4% (v/v) formaldehyde dissolved in PBS. Fixed cells were examined by fluorescence microscopy (Zeiss Germany, a 40× objective; Apoplan) or by confocal microscopy using an MRC 1024 confocal imaging system (Bio-Rad). The microscope (Axiovert 135M; Zeiss Germany, a 63× objective; Apoplan; NA 1.4) was equipped with an argon ion laser for Rhodamine excitation at 514 nm (emission 580).
Following fixation, the various samples were examined by fluorescence microscopy.
Synthetic peptides bearing Tat and Rev ARM sequences were synthesized and fluorescently labeled as described. […]

permeabilized HeLa cells = test: Nuclear uptake in digitonin-permeabilized cells, fluorescence microscopy; assay type: cell-based; parameters: key to Nuclear Import of PV-S413 / Nuclear uptake: +: Most of the nuclei in the microscopic fields are highly fluorescent; −: No fluorescence in the nuclei; +/−: Most of the nuclei are very weakly fluorescent
Experimental: FIGS. 2a-d: Nuclear import of PV-S413 in permeabilized HeLa cells: fluorescence microscopy observations. All experimental conditions were as described in Experimental Procedures and in legend to Table 3. Digitonin permeabilized HeLa cells were incubated in the presence of reticulocyte extract at 30° C. for 1 hour with 1 μM of the following:
HeLa cells were cultivated on 10 mm cover slips to sub confluent density and then permeabilized with digitonin as described previously [Friedler, A. et al. (1998) Biochemistry 37, 5616-5622]. The cells were incubated with the peptides and nuclear import was followed by fluorescence microscopy as described [Friedler, A. et al. (1998) id ibid.].
Experimental conditions of nuclear import in digitonin-permeabilized cells (complete system) were as described. PV-S413 was used at 1 mM and all incubations were performed at 37° C. in the presence of reticulocyte lysate, unless otherwise indicated. Additions: GTPγS (20 mM) and the following unlabeled peptides SV40 T-Ag NLS, S413 and PV-S413 at a ratio of 1:100 (mol/mol).
Unlabeled peptides RR-S413, SV40 T-Ag-NLS, Rev and Tat ARM were added at a peptide ratio of 1:100 (mole/mole).

cultured cells = test: Effect of the peptides on cell viability (Trypan Blue); assay type: cell-based; conditions: for toxicity to cells, Trypan Blue test: at the concentrations used, 37° C., 30 minutes; for toxicity to the cells (cell viability): at concentrations up to about 15 μM
Experimental: Following incubation at 37° C. for 30 minutes 100 ml, Trypan Blue solution was added (0.4% in HBSS buffer; Sigma) and HBSS buffer (5:3) and viable cells counted after 5 minutes of continuous stirring. Cell death was not greater than 20%.

HeLa cells [2] = test: Microinjection of the peptides into HeLa cells, nuclear import; assay type: cell-based; conditions: 1 μM, 2 hours after incubation at 37° C.
Experimental: FIGS. 4a-d: Nuclear import of S413 and RR-S413 in microinjected cells. HeLa cells were microinjected with the fluorescently labeled peptides S413 and RR-S413 (1 μM). The injection mixture also included fluorescently labeled BSA as an injection control (data not shown). Photos were taken 2 hours after incubation at 37° C.
HeLa cells were microinjected with either S413 or with RR-S413 using the CompInject AIS2 automated microinjection system (Cell Biology Trading, Hamburg, Germany) as described previously [Neumann, M. et al. (2001) J. Cell Sci. 114, 1717-29] using a microinjection method developed by Graessmann et al., as described [Graessmann, M. and Graessmann, A. (1983) Methods Enzymol. 101, 482-492].

erythrocytes = conditions: cited from earlier work

CCN(CC)c1ccc2c(-c3ccc(S(=O)(=O)O)cc3S(=O)(=O)[O-])c3ccc(=[N+](CC)CC)cc-3oc2c1 [L-Rhodamine, Lissamine Rhodamine, reference compound]
co-penetration of free fluorophore LR into intact HeLa cells (HeLa cells [1]): did not occur

ALWKTLLKKVLKA-NH2 [Peptide S413]
time of incubation within which penetration into cultured HeLa cells occurs (HeLa cells [1]; 1 μM of the peptide, either at 37° C. or at 4° C.): ≤ 5 min | cell penetration and intracellular localization in intact HeLa cells (FIG. 1) (HeLa cells [1]): accumulated within the cells' cytoplasm and not in the cells' nuclei | nuclear localization after long incubation (HeLa cells [1]; 24 hours after incubation at 37° C.): very little, if any, nuclear localization | penetration into intact cells in ATP depleted cells (HeLa cells [1]; ATP depleted cells): occurred | co-penetration of free fluorophore LR into intact HeLa cells (HeLa cells [1]): a few intracellular fluorescent dots | penetration into nuclei of digitonin permeabilized HeLa cells (FIG. 2) (permeabilized HeLa cells; 1 μM, reticulocyte extract, 30° C., 1 hour): did not penetrate | toxicity to cells, Trypan Blue test (cultured cells): non-toxic | localization following microinjection into intact HeLa cells (FIG. 4) (HeLa cells [2]): retained in the cytoplasm; also recorded: remained in the cytoplasm

ALWKTLLKKVLKAPKKKRKV-NH2 [Peptide S413-PV]
toxicity to cells, Trypan Blue test (cultured cells): not toxic

ALWMTLLKKVLKAAAKAALNAVLVGANA-COOH (ALWMTLLKKVLKAAAKAALNAVLVGANA-OH) [Peptide S4, reference compound]
toxicity to erythrocytes (erythrocytes): highly toxic

GRKKRRQRRRPPQC-NH2 [Tat-ARM, reference compound]
toxicity to the cells (cell viability) (cultured cells): not toxic

PKKKRKVALWKTLLKKVLKA-NH2 [PV-S413]
intracellular localization in intact HeLa cells at 4° C. (HeLa cells [1]; 4° C.): retained in the cytoplasm | cell penetration and intracellular localization in intact HeLa cells (FIG. 1) (HeLa cells [1]): cell penetration and accumulation within the cells' nuclei | ATP dependence of nuclear import in permeabilized HeLa cells (permeabilized HeLa cells): ATP-dependent | nuclear import in permeabilized HeLa cells at 4° C. (permeabilized HeLa cells; 4° C.): did not occur | Nuclear Import of PV-S413 (permeabilized HeLa cells; (i) Complete System: 1 mM peptide, 37° C., reticulocyte lysate): + | Nuclear Import of PV-S413 (permeabilized HeLa cells; (ii) Hexokinase (ATP depleted system)): − | Nuclear Import of PV-S413 (permeabilized HeLa cells; (iii) As (i), in the absence of reticulocyte extract): − | Nuclear Import of PV-S413 (permeabilized HeLa cells; (iv) As (i) at 4° C.): − | Nuclear Import of PV-S413 (permeabilized HeLa cells; (v) As (i) + GTPγS (20 mM)): − | Nuclear Import of PV-S413 (permeabilized HeLa cells; (vi) As (i) + unlabeled SV40-NLS, 1:100 (mol/mol)): +/− | Nuclear Import of PV-S413 (permeabilized HeLa cells; (vii) As (i) + unlabeled S413, 1:100 (mol/mol)): + | Nuclear Import of PV-S413 (permeabilized HeLa cells; (viii) As (i) + unlabeled PV-S413, 1:100 (mol/mol)): +/− | effect of GTPγS, WGA and excess of free unlabeled SV40 T-Ag-NLS peptide on nuclear import (permeabilized HeLa cells; permeabilized HeLa cells): inhibited | toxicity to cells, Trypan Blue test (cultured cells): not toxic

RQARRNRRRALWKTLLKKVLKA-NH2 [RR-S413]
cell penetration and nuclear accumulation in intact HeLa cells (FIG. 3) (HeLa cells [1]): readily penetrated into intact HeLa cells and accumulated—within a short period of time—within the nuclei of these cells | Nuclear uptake (permeabilized HeLa cells; ATP depleted cells): − | Nuclear uptake (permeabilized HeLa cells; In the absence of cytosolic factors): + | Nuclear uptake (permeabilized HeLa cells; In the presence of cytosolic factors): +/− | Nuclear uptake (permeabilized HeLa cells; In the presence of unlabeled RR-S413, 1:100 (mole/mole)): +/− | Nuclear uptake (permeabilized HeLa cells; In the presence of unlabeled Rev-ARM, 1:100 (mole/mole)): − | Nuclear uptake (permeabilized HeLa cells; In the presence of unlabeled SV40 T-Ag NLS, 1:100 (mole/mole)): + | Nuclear uptake (permeabilized HeLa cells; In the presence of unlabeled Tat-ARM, 1:100 (mole/mole)): +/− | Nuclear uptake (permeabilized HeLa cells; Incubation in 4° C.): − | nuclear import in digitonin permeabilized HeLa cells (permeabilized HeLa cells; no addition of cytosolic extract required): Nuclear import was also observed | toxicity to the cells (cell viability) (cultured cells): not toxic | localization following microinjection into intact HeLa cells (FIG. 4) (HeLa cells [2]): accumulated within the intranuclear space; also recorded: accumulated in the nuclei

RQARRNRRRC-NH2 [Rev-ARM, reference compound]
cell penetration and nuclear accumulation in intact HeLa cells (FIG. 3) (HeLa cells [1]): cell permeable | toxicity to the cells (cell viability) (cultured cells): not toxic

VKRKKKPALWKTLLKKVLKA-NH2 [rPV-S413]
cell penetration and intracellular localization in intact HeLa cells (FIG. 1) (HeLa cells [1]): very little, if any, accumulation within the cells' nuclei/nucleoli | nuclei accumulation in permeabilized HeLa cells (permeabilized HeLa cells; both in the presence and in the absence of the cytosolic extract): either did not accumulate or showed poor nuclei accumulation
